Results as given in patent US10745395B2, “Compounds for their use as drugs for the treatment and/or the prevention of infection(s) caused by biofilm-forming bacteria” (CENTRE NATIONAL DE LA RECHERCHE SCIENTIFIQUE, priority 2014, dated 2020).

Assays:
Assay type in all cases: cell-based, Pseudomonas aeruginosa
[1] = tested on: P. aeruginosa strain PAR 5 biofilm; experiment: Mature biofilm model, Congo red staining; conditions: for absorbance (Congo red, biofilm development): mature biofilm, compound added 48 h after induction of biofilm
Method: (§1) Biofilm quantity was determined using Congo red dye according to a modified procedure described by Allison et al. (Allison G C, Sutherland I W. A staining technique for bacteria and its correlation to extracellular carbohydrate production. J Microbiol Meth 2, 93-99 (1984)).
(§2) Briefly, at different time points (0, 6, 18, 24, 48 and 72 hours), the culture medium was gently removed from wells by using the pipette and immediately 200 μl of 0.1% Congo red solution was added. The plates were left for 30 minutes at room temperature and then 10 minutes before the end of staining, the plate was centrifuged for 10 minutes at 2000 rpm and then washed twice with buffered saline to remove unbound dye. Absorbance was measured at λ=492 nm wavelength using spectrophotometer (Awarness Technology Inc., Palm City, Fla., USA). All measurements were performed in triplicates and mean values±SD are given.
(§3) Mature biofilm model: the tested substances were added 48 hours after adherence of bacteria to the wells in a 96-well plate. The growth conditions of P. aeruginosa were exactly the same, as described above for the early biofilm model.
(§4) After the addition of iminosugars (compounds 1, 2, 3 and 4), the biofilm formation and the number of viable bacteria were checked in the following time intervals: 48, 48.5, 56, 72, 96 hours.

[2] = tested on: P. aeruginosa strain PAR 20 biofilm; experiment: Mature biofilm model, Congo red staining; conditions: for absorbance (Congo red, biofilm development): mature biofilm, compound added 48 h after induction of biofilm
Method: as §1, §2, §3, §4

[3] = tested on: P. aeruginosa strain PAR 50 biofilm; experiment: Mature biofilm model, Congo red staining; conditions: for absorbance (Congo red, biofilm development): mature biofilm, compound added 48 h after induction of biofilm
Method: as §1, §2, §3, §4

[4] = tested on: P. aeruginosa strain PAR 50 biofilm; experiment: Reduction of biofilm growth (percent vs culture control)
Text: (§5) FIG. 4C represents the effect of the tested compounds (1, 2, 3 and 4) on exopolysaccharide biosynthesis in the early stages and mature P. aeruginosa biofilm formation, strain PAR 50. The abscissa represents the time (in hours) in order to differentiate early biofilm and mature biofilm, and the ordinate represents the percentage of the biofilm reduction.
(§6) Early biofilm model: formation of early biofilm under influence of the tested substances was observed by filling wells of a 96-well plate with 20 μl of P. aeruginosa suspension and 180 μl of TSB, as described above. Tested iminosugars (compounds 1, 2, 3 and 4) were added immediately after setting-up the bacteria at a final concentration of 0.9 mM. Then, the plate was gently mixed and incubated for 48 hours at 37° C.
as §3
(§7) The effect of the tested compounds (1, 2, 3 and 4) on the reduction of biofilm growth has also been studied on the three P. aeruginosa strains PAR 5, PAR 20, PAR 50.
(§8) (Percent decrease in biofilm thickness was obtained as a mean value from 3 consecutive measurements of the Congo Red stained biofilm using spectrophotometer after addition of the tested iminosugars in comparison to control regarded as 100%).

[5] = tested on: P. aeruginosa strain PAR 20 biofilm; experiment: as above
Text: as §5, with “4B” for “4C”, “20.” for “50.”
as §6, §3, §7, §8

[6] = tested on: P. aeruginosa strain PAR 5 biofilm; experiment: as above
Text: as §5, with “4A” for “4C”, “5.” for “50.”
as §6, §3, §7, §8

[7] = tested on: P. aeruginosa strain PAR 50; experiment: Number of viable bacteria in early and mature biofilm (viable count)
Method: (§9) Biofilm formation and the number of viable bacteria were checked in parallel in the following time intervals: 0, 0.5, 8, 24, 48 hours, in accordance with the procedure described above. Biofilm thickness was estimated by staining it with Cango Red and measuring optical density while number of viable bacteria was performed using the standard viable count method. (Allison G C, Sutherland I W. A staining technique for bacteria and its correlation to extracellular carbohydrate production. J Microbiol Meth 2, 93-99 (1984)).
as §4
(§10) Numbers of viable bacteria contained in the early and mature biofilm were estimated on separate plates with wells filled with tested P. aeruginosa strains as described above (PAR 5, PAR 20, PAR 50).
(§11) At the same time intervals, biofilm content in each well was removed and mixed by multiple pippeting and transferred to sterile tubes. Then decimal dilutions of the bacterial suspension were made in TSB broth, plated on McConkey Agar (Oxoid), and incubated at 37° C. for 24 hours.
(§12) Numbers of colonies grown on platter were counted and total numbers of the viable bacteria calculated as colony forming units (CFU) per ml.
(§13) The results depict logs of CFU/ml for three P. aeruginosa strains: PAR 5, PAR 20 and PAR 50 measured at different time intervals (0 hours, 8 hours, 24 hours, 48 hours, 56 hours, 72 hours and 96 hours). The detection limit is 100 CFU/ml.

[8] = tested on: P. aeruginosa strain PAR 20; experiment: as above
Method: as §9, §4, §10, §11, §12, §13

[9] = tested on: P. aeruginosa strain PAR 5; experiment: as above
Method: as §9, §4, §10, §11, §12, §13

[10] = tested on: P. aeruginosa strain PAR 5 biofilm; experiment: Early biofilm model, Congo red staining; conditions: for absorbance (Congo red, biofilm formation): 0.9 mM, 492 nm
Method: (§14) P. aeruginosa biofilm was set-up in sterile plastic 96-well plates with adherent surface (Greiner Bio-One, USA).
(§15) Twenty microliter quantities of the bacterial stock suspensions, prepared as described above, were added to each well followed with 180 μl of sterile TSB. Final concentration of the bacteria was 1×10^8 CFU/ml.
(§16) The plates were centrifuged for 10 minutes at 2000 rpm to sediment bacteria on the bottom of each well and then incubated for 72 hours (37° C., aerobic conditions).
as §1, §2, §6, §9
(§17) P. aeruginosa suspension cultures in TSB broth alone were used as a control.

[11] = tested on: P. aeruginosa strain PAR 20 biofilm; experiment: Early biofilm model, Congo red staining; conditions: for absorbance (Congo red, biofilm formation): early biofilm, 0.9 mM, 492 nm
Method: as §14, §15, §16, §1, §2, §6, §9, §17

[12] = tested on: P. aeruginosa strain PAR 50 biofilm; experiment: Early biofilm model, Congo red staining; conditions: for absorbance (Congo red, biofilm formation): early biofilm, 0.9 mM, 492 nm
Method: as §14, §15, §16, §1, §2, §6, §9, §17

[13] = in comparison with culture control

COc1ccc(C[C@@H]2CCC[C@@H]3[C@H](O)[C@@H](O)[C@H](CO)N23)cc1 [Compound 3, (1S,2S,3S,5S,9R)-1,2-dihydroxy-3-hydroxymethyl-5-p-methoxybenzylindolizidine]
influence on mature biofilm formation [1]: weak influence | absorbance (Congo red, biofilm development) ([1]; 48 hours): about 0.75 a.u. | absorbance (Congo red, biofilm development) ([1]; 56 hours): about 1.25 a.u. | absorbance (Congo red, biofilm development) ([1]; 72 hours): about 1.25 a.u. | absorbance (Congo red, biofilm development) ([1]; 96 hours): about 1.25 a.u. | influence on mature biofilm formation [2]: weak influence | absorbance (Congo red, biofilm development) ([2]; 48 hours): about 0.6 a.u. | absorbance (Congo red, biofilm development) ([2]; 56 hours): about 1.1 a.u. | absorbance (Congo red, biofilm development) ([2]; 72 hours): about 0.75 a.u. | absorbance (Congo red, biofilm development) ([2]; 96 hours): about 1.5 a.u. | influence on mature biofilm formation [3]: weak influence | absorbance (Congo red, biofilm development) ([3]; 48 hours): about 1.25 a.u. | absorbance (Congo red, biofilm development) ([3]; 56 hours): about 1.0 a.u. | absorbance (Congo red, biofilm development) ([3]; 72 hours): about 2.0 a.u. | absorbance (Congo red, biofilm development) ([3]; 96 hours): about 2.5 a.u. | reduction of biofilm growth ([4]; 8 hours of incubation): about 45% | reduction of biofilm growth ([4]; 24 hours of incubation): about 45% | reduction of biofilm growth ([4]; 48 hours of incubation): about 5% | reduction of biofilm growth ([4]; 72 hours of incubation): about 20% | effect on biofilm growth ([4]; notably an early biofilm): can reduce the biofilm growth | reduction of biofilm growth ([5]; 8 hours of incubation): about 50% | reduction of biofilm growth ([5]; 24 hours of incubation): about 60% | reduction of biofilm growth ([5]; 48 hours of incubation): about 0% | reduction of biofilm growth ([5]; 72 hours of incubation): about 20% | effect on biofilm growth ([5]; notably an early biofilm): can reduce the biofilm growth | reduction of biofilm growth ([6]; 8 hours of incubation): about 90% | reduction of biofilm growth ([6]; 24 hours of incubation): about 90% | reduction of biofilm growth ([6]; 48 hours of incubation): about 25% | reduction of biofilm growth ([6]; 72 hours of incubation): about 10% | effect on biofilm growth ([6]; notably an early biofilm): can reduce the biofilm growth | number of viable P. aeruginosa ([7]; early biofilm, 0 h): 4 × 10^7 CFU/ml | number of viable P. aeruginosa ([7]; early biofilm, 8 h): 1 × 10^8 CFU/ml | number of viable P. aeruginosa ([7]; early biofilm, 24 h): 6 × 10^8 CFU/ml | number of viable P. aeruginosa ([7]; early biofilm, 48 h): 6 × 10^8 CFU/ml | number of viable P. aeruginosa ([7]; mature biofilm, 56 h): 4 × 10^8 CFU/ml | number of viable P. aeruginosa ([7]; mature biofilm, 72 h): 5 × 10^9 CFU/ml | number of viable P. aeruginosa ([7]; mature biofilm, 96 h): 8 × 10^9 CFU/ml | number of viable P. aeruginosa ([8]; early biofilm, 0 h): 5 × 10^6 CFU/ml | number of viable P. aeruginosa ([8]; early biofilm, 8 h): 3 × 10^7 CFU/ml | number of viable P. aeruginosa ([8]; early biofilm, 24 h): 5 × 10^8 CFU/ml | number of viable P. aeruginosa ([8]; early biofilm, 48 h): 3 × 10^9 CFU/ml | number of viable P. aeruginosa ([8]; mature biofilm, 56 h): 3 × 10^8 CFU/ml | number of viable P. aeruginosa ([8]; mature biofilm, 72 h): 7 × 10^7 CFU/ml | number of viable P. aeruginosa ([8]; mature biofilm, 96 h): 7 × 10^7 CFU/ml | number of viable P. aeruginosa ([9]; early biofilm, 0 h): 6 × 10^6 CFU/ml | number of viable P. aeruginosa ([9]; early biofilm, 8 h): 4 × 10^7 CFU/ml | number of viable P. aeruginosa ([9]; early biofilm, 24 h): 1 × 10^7 CFU/ml | number of viable P. aeruginosa ([9]; early biofilm, 48 h): 2 × 10^6 CFU/ml | number of viable P. aeruginosa ([9]; mature biofilm, 56 h): 3 × 10^8 CFU/ml | number of viable P. aeruginosa ([9]; mature biofilm, 72 h): 2 × 10^8 CFU/ml | number of viable P. aeruginosa ([9]; mature biofilm, 96 h): 1 × 10^9 CFU/ml | biofilm formation at 8 hours, 24 hours and 48 hours ([10]; early biofilm): no biofilm formation | absorbance (Congo red, biofilm formation) ([10]; early biofilm, 8 hours): about 0.25 a.u. | absorbance (Congo red, biofilm formation) ([10]; early biofilm, 24 hours): about 0.25 a.u. | absorbance (Congo red, biofilm formation) ([10]; early biofilm, 48 hours): about 0.25 a.u. | effect on formation of an early biofilm [10, 13]: inhibit the formation of an early biofilm | absorbance (Congo red, biofilm formation) ([11]; 8 hours): about 0.75 a.u. | absorbance (Congo red, biofilm formation) ([11]; 24 hours): about 0.7 a.u. | absorbance (Congo red, biofilm formation) ([11]; 48 hours): about 0.7 a.u. | effect on formation of an early biofilm [11, 13]: inhibit the formation of an early biofilm | absorbance (Congo red, biofilm formation) ([12]; 8 hours): about 0.8 a.u. | absorbance (Congo red, biofilm formation) ([12]; 24 hours): about 0.25 a.u. | absorbance (Congo red, biofilm formation) ([12]; 48 hours): about 0.25 a.u. | effect on formation of an early biofilm [12, 13]: inhibit the formation of an early biofilm
